In US11345701B1, “KRAS mutant protein inhibitors” (Jacobio Pharmaceuticals Co., Ltd., priority 2021, dated 2022):

How the values were obtained:
[1] = target: HIS-KRAS(G12C) (Homo sapiens (Human), UniProt P01116, G12C); test: SOS1 catalyzed nucleotide exchange assay (TR-FRET); assay type: biochemical
Protocol: TR-FRET signals were then read on Tecan Spark multimode microplate reader. […] TR-FRET ratios for each individual wells were calculated by equation: TR-FRET ratio=(Signal F515/Signal F486)*10000. Then the data were analyzed using a 4-parameter logistic model to calculate IC50 values.

[2] = tested on: NCI-H358 cells expressing KRAS G12C mutant protein; test: Phospho-ERK1/2(THR202/TYR204) HTRF assay; assay type: cell-based
Protocol: The NCI-H358 cells in culture medium were seeded in 96-well plates at a concentration of 40,000 cells/well and then put in a 37° C./5% CO2 cell incubator to incubate overnight. […] After 2 hours incubation in a 37° C./5% CO2 cell incubator, the assay medium in 96-well plates was removed, then 50 μL of 1× blocking reagent-supplemented lysis buffer (Cisbio) was added and the plates were incubated at 25° C. for 45 min with shaking. 10 μL of cell lysates from the 96-well plates were transferred to a 384-well plate (Greiner) containing 2.5 μL/well HTRF® pre-mixed antibodies (Cisbio 64AERPEH). Incubate 4 hours at 25° C. and then read HTRF signals on Tecan Spark multimode microplate reader. The data were analyzed using a 4-parameter logistic model to calculate IC50 values.

[3] = Dog pharmacokinetic study; assay type: in vivo, beagle dog; details: for CL / VSS / AUC0-24h / Cmax / Oral BA (F %): beagle dog; for CL / VSS: 1 mg/kg, iv; for AUC0-24h / Cmax / Oral BA (F %) / AUC0-24 h relative to the control compound Amg-510: 3 mg/kg, po
Protocol: (§1) The purpose of this study was to evaluate the pharmacokinetic properties of compounds in beagle dog following single dose administration. The day before administration, dogs were fasted overnight and free access to water. Four beagle dogs were needed for each compound and the four dogs were divided into two groups, group A and group B (one male(♂) and one female (♀) in each group). Dogs in group A were treated with a single 1 mg/kg dose of compound (iv). Dogs in group B were treated with a single 3 mg/kg dose of compound (po). For dogs in group A, blood samples were collected at pre-dose, and at the time point of 0.083, 0.25, 0.5, 1, 2, 4, 6, 8 and 24 h post-dose. For dogs in group B, blood samples were collected at pre-dose, and at the time point of 0.25, 0.5, 1, 2, 4, 6, 8 and 24 h post-dose. Blood samples were placed on ice until centrifugation to obtain plasma samples. The plasma samples were stored at −80° C. until analysis. The concentration of compound in plasma samples was determined using a LC-MS/MS method.

[4] = Cynomolgus monkey pharmacokinetic study; assay type: in vivo; details: for CL / VSS / AUC0-24h / Cmax / Oral BA (F %): cynomolgus monkey; for CL / VSS: 1 mg/kg, iv; for AUC0-24h / Cmax / Oral BA (F %) / AUC0-24 h relative to the control compound Amg-510: 3 mg/kg, po
Protocol: as §1, with “cynomolgus monkey” for “beagle dog”, “monkeys” for “dogs”, “monkeys are” for “beagle dogs were”, “male (♂)” for “male(♂)”, “Monkeys” for “Dogs”

[5] = tested on: NCI-H1373 (KRAS^G12C) xenograft; test: Efficacy in NCI-H1373 (KRAS G12C) xenograft model; assay type: in vivo, BALB/c nude mice; details: 10 mg/kg, QD
Protocol: NCI-H1373 (KRAS^G12C) cells (5.0E+06 cells) were injected subcutaneously into the right flank of female BALB/c nude mice (6-8 weeks) in a mixture with PBS and Matrigel (Corning) (PBS/Matrigel=1:1(v/v)). Mice were monitored daily and caliper measurements began when tumors became visible. Tumor volume was calculated by measuring two perpendicular diameters using the formula: (L*W^2)/2 in which L and W refer to the length and width tumor diameter respectively. When the average tumor volume reached 150-200 mm^3, mice were grouped randomly (n=6/group) and treated with compounds. Tumor volume and mice weight was measured twice a week during treatment (˜ 3 weeks). Tumor growth inhibition rates were calculated by TGI %=(1−(Vt−Vt0)/(Vc−Vc0))*100%, wherein Vc and Vt are the mean tumor volume of control and treated groups at the end of the study respectively, and Vc0 and Vt0 are the mean tumor volume of control and treated groups at the start respectively. The results are in the following Table 7 and FIG. 1: […]

[6] = tested on: SW837 (KRAS^G12C) xenograft; test: Safety exploration in SW837 (KRAS G12C) xenograft model; assay type: in vivo; details: 400 mg/kg, po, QD for 22 days, female NOD SCID mice, FIG. 2
Protocol: SW837 (KRAS^G12C) cells (1.0E+07 cells) were injected subcutaneously into the right flank of female NOD SCID mice (6-8 weeks) in a mixture with PBS and Matrigel (Corning) (PBS/Matrigel=1:1(v/v)). Mice were monitored daily and caliper measurements began when tumors became visible. Tumor volume was calculated by measuring two perpendicular diameters using the following formula: (L*W^2)/2 in which L and W refer to the length and width tumor diameter respectively. After mice were grouped to study the efficacy, the remaining mice (n=8) were used to explore the safety. The mice were treated with 400 mg/kg Compound 2-1 (po, QD) for 22 days, and mice body weight was measured twice a week during treatment. From FIG. 2, it can be seen that the Compound 2-1 has good safety.

Chain of HIS-KRAS(G12C) (P01116 other isoform, or with tags, fused parts or gaps G12C): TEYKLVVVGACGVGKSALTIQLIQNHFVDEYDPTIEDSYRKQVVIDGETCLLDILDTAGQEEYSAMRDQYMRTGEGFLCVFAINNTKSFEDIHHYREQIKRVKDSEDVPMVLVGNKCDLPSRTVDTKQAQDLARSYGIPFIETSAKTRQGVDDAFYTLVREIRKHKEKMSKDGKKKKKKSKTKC

With `C=CC(=O)N1CCN(c2nc(=O)n(-c3c(C)ccnc3C(C)C)c3nc(-c4c(N)c(F)c(F)c(F)c4F)c(F)cc23)[C@@H](C)C1` (atropisomer, axis not shown; (M)) [Compound 2-1, (M)-4-((S)-4-acryloyl-2-methylpiperazin-1-yl)-7-(2-amino-3,4,5,6-tetrafluorophenyl)-6-fluoro-1-(2-isopropyl-4-methylpyridin-3-yl)pyrido[2,3-d]pyrimidin-2(1H)-one] the IC50 ([1]; GDP-loaded HIS-KRAS(G12C), 1 hour pre-incubation, TR-FRET) was 1.19 nM, the “Inhibitory activity relative to the control compound Amg-510” value ([1]; SOS1 catalyzed nucleotide exchange assay) was “about 2 times” and the IC50 ([2]; 2 hours incubation, read-out: p-ERK IC50) was 14.5 nM. The “Inhibitory activity relative to the control compound Amg-510” value ([2]; phospho-ERK1/2 HTRF assay) was “about 2 times”, the “Pharmacokinetic properties in words” value ([3]; beagle dog model, compared with Amg-510) was “excellent pharmacokinetic properties” and the CL ([3]; female) was 4.40 mL/min/kg. The VSS ([3]; female) was 0.295 L/kg, the AUC0-24h ([3]; female) was 5022 ng·h/mL and the Cmax ([3]; female) was 2330 ng/mL. The “Oral BA (F %)” value ([3]; female) was 44.3%, the CL ([3]; male) was 4.15 mL/min/kg and the VSS ([3]; male) was 0.255 L/kg. For the same compound, the AUC0-24h ([3]; male) was 7308 ng·h/mL, the Cmax ([3]; male) was 4080 ng/mL and the “Oral BA (F %)” value ([3]; male) was 60.9%. For the same compound, the “AUC0-24 h relative to the control compound Amg-510” value ([3]; female beagle dog) was “more than 12 times”, the “AUC0-24 h relative to the control compound Amg-510” value ([3]; male beagle dog) was “more than 3 times” and the CL ([4]; female) was 8.20 mL/min/kg. The VSS ([4]; female) was 0.507 L/kg, the AUC0-24h ([4]; female) was 2494 ng·h/mL and the Cmax ([4]; female) was 1060 ng/mL. The “Oral BA (F %)” value ([4]; female) was 41.2%, the CL ([4]; male) was 8.26 mL/min/kg and the VSS ([4]; male) was 0.555 L/kg. The AUC0-24h ([4]; male) was 3253 ng·h/mL, the Cmax ([4]; male) was 1580 ng/mL and the “Oral BA (F %)” value ([4]; male) was 54.1%. The “AUC0-24 h relative to the control compound Amg-510” value ([4]; female cynomolgus monkey) was “more than 10 times”, the “AUC0-24 h relative to the control compound Amg-510” value ([4]; male cynomolgus monkey) was “more than 15 times” and the “Pharmacokinetic properties in words” value ([4]; monkey model) was “excellent pharmacokinetic properties”. The “Tumor response in words” value ([5]; Table 7 and FIG. 1) was “regression of the tumor has been observed”, the “Tumor volume at the end (Day 21)” value ([5]; female BALB/c nude mice, Day 21) was 27 mm^3 and the “Tumor volume at the start” value ([5]; female BALB/c nude mice, baseline) was 192 mm^3. The TGI % ([5]; female BALB/c nude mice, end of study (Day 21)) was 110% and the “Safety judged from mice body weight” value [6] was “good safety”.
